The assay addresses T1, human PAD4 (Homo sapiens, UniProt Q9UM07).
T1 construct: human PAD4 (NM_012387), A2-P663, was PCR amplified; His-SUMO (N, cleaved yes); made in house; host or cells: E. coli BL21(DE3)
The assay is described as follows: In vitro PAD4 BAEE biochemical assay. Particulars: BAEE substrate 3 mM, 5 nM PAD4, 2 mM calcium chloride; geometric mean of multiple experiments. The gist of the method: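 Ammonia produced by BAEE deimination (3 mM substrate, 2 h, 25 °C) was read as fluorescent isoindole after o-phthalaldehyde/DTT derivatization, ex 405 nm/em 535 nm. Human PAD4 at 5 nM final, 2 mM calcium, pH 7.6 MOPS; compound preincubated 30 min. IC50s, normalized to BB-Cl-Amidine and DMSO controls, were geometric-mean averaged.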
T1 sequence (Q9UM07 2-663): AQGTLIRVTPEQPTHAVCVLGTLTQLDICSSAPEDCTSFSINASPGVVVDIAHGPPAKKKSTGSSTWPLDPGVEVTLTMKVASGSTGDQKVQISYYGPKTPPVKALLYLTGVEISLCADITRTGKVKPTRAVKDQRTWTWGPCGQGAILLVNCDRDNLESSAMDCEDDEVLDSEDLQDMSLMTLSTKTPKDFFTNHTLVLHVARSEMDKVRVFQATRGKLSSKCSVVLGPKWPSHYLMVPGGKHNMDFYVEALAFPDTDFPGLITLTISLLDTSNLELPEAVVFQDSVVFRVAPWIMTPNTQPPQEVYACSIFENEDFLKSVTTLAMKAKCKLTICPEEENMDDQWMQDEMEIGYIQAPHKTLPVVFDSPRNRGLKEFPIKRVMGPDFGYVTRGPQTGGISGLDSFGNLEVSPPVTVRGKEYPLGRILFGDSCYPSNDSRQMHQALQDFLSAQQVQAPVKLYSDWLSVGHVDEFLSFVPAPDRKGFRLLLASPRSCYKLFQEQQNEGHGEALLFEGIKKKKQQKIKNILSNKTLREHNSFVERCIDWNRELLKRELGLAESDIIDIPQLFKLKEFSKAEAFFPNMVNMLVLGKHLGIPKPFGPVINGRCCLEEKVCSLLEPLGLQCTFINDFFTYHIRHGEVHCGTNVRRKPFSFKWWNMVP
Usually IC50 stands for the point on the concentration scale where inhibition reaches its midpoint. For `C[C@H]1NC(=O)C(C)(C)CCCCCCn2c(-c3nc4cc(C(=O)N5C[C@H](N)[C@@H]6CC[C@H]5C6)cc(F)c4n3C3CC3)cc3ccc1cc32` [Example 462, (11~{R})-17-[5-[(1~{S},4~{R},5~{R})-4-amino-2-azabicyclo[3.2.1]octane-2-carbonyl]-1-cyclopropyl-7-fluoro-benzimidazol-2-yl]-8,8,11-trimethyl-1,10-diazatricyclo[10.5.2.0^{15,18}]nonadeca-12(19),13,15(18),16-tetraen-9-one], the IC50 came out at 31 nM.
For the compound `COc1cc(C(=O)N2C[C@H](N)[C@@H]3CC[C@H]2C3)cc2nc(-c3cc4cc(F)c5cc4n3CC(F)(F)CCC[C@@H]3C[C@H]3C(=O)N[C@@H]5C)n(C)c12` [Example 463, (2~{R},5~{R},7~{R})-14-[5-[(1~{S},4~{R},5~{R})-4-amino-2-azabicyclo[3.2.1]octane-2-carbonyl]-7-methoxy-1-methyl-benzimidazol-2-yl]-11,11,18-trifluoro-2-methyl-3,13-diazatetracyclo[11.5.2.0^{5,7}.0^{16,20}] icosa-1(19),14,16(20),17-tetraen-4-one], the IC50 is 29 nM.
As for `C[C@H]1NC(=O)[C@@H]2C[C@H]2CCCC(F)(F)Cn2c(-c3nc4cc(C(=O)N5C[C@H](N)[C@@H]6CC[C@H]5C6)cc(F)c4n3C3CC3)cc3cc(F)c1cc32` [Example 464, (2~{R},5~{R},7~{R})-14-[5-[(1~{S},4~{R},5~{R})-4-amino-2-azabicyclo[3.2.1]octane-2-carbonyl]-1-cyclopropyl-7-fluoro-benzimidazol-2-yl]-11,11,18-trifluoro-2-methyl-3,13-diazatetracyclo[11.5.2.0^{5,7}.0^{16,20}] icosa-1(19),14,16(20),17-tetraen-4-one], the IC50 came to 28 nM.
In the case of `COc1cc(C(=O)N2C[C@H](N)[C@@H]3CC[C@H]2C3)cc2nc(-c3cc4ccc5cc4n3CCCCCCC(C)(C)C(=O)N[C@@H]5C)n(C)c12` [Example 465, (11~{R})-17-[5-[(1~{S},4~{R},5~{R})-4-amino-2-azabicyclo[3.2.1]octane-2-carbonyl]-7-methoxy-1-methyl-benzimidazol-2-yl]-8,8,11-trimethyl-1,10-diazatricyclo[10.5.2.0^{15,18}]nonadeca-12(19),13,15(18),16-tetraen-9-one], the IC50 was determined as 23 nM.
Turning to `C[C@H]1NC(=O)[C@@H]2C[C@H]2CCCC(F)(F)Cn2c(-c3nc4cc(C(=O)N5C[C@H](N)[C@@H]6CC[C@H]5C6)c(F)c(F)c4n3C3CC3)cc3ccc1nc32` [Example 466, (2~{R},5~{R},7~{R})-14-[5-[(1~{S),4~{R},5~{R})-4-amino-2-azabicyclo[3.2.1]octane-2-carbonyl]-1-cyclopropyl-6,7-difluoro-benzimidazol-2-yl]-11,11-difluoro-2-methyl-3,13,19-triazatetracyclo[11.5.2.0^{5,7}.0^{16,20}] icosa-1(19),14,16(20),17-tetraen-4-one], the IC50 came to 55 nM.
For `C[C@H]1NC(=O)[C@@H]2C[C@H]2CCCC(F)(F)Cn2c(-c3nc4cc(C(=O)N5C[C@H](N)[C@@H]6CC[C@H]5C6)cc(F)c4n3[C@@H]3C[C@@H]3F)cc3ccc1nc32` [Example 467, (2~{R},5~{R},7~{R})-14-[(1~{R})-5-[(1~{S},4~{R},5~{R})-4-amino-2-azabicyclo[3.2.1]octane-2-carbonyl]-7-fluoro-1-[(2~{S})-2-fluorocyclopropyl]benzimidazol-2-yl]-11,11-difluoro-2-methyl-3,13,19-triazatetracyclo[11.5.2.0^{5,7}.0^{16,20}] icosa-1(19),14,16(20),17-tetraen-4-one], the IC50 amounted to 27 nM.
Consider `C[C@H]1NC(=O)[C@@H]2C[C@H]2CCCC(F)(F)Cn2c(-c3nc4cc(C(=O)N5C[C@H](N)[C@@H]6CC[C@H]5C6)cc(F)c4n3[C@H]3C[C@H]3F)cc3ccc1nc32` [Example 468, (2~{R},5~{R},7~{R})-14-[5-[(1~{S},4~{R},5~{R})-4-amino-2-azabicyclo[3.2.1]octane-2-carbonyl]-7-fluoro-1-[(1~{S},2~{R})-2-fluorocyclopropyl]benzimidazol-2-yl]-11,11-difluoro-2-methyl-3,13,19-triazatetracyclo[11.5.2.0^{5,7}.0^{16,20}] icosa-1(19),14,16(20),17-tetraen-4-one], for which the IC50 was 28 nM.
As for `C[C@H]1NC(=O)c2ccc(Cl)nc2CCCCCn2c(-c3nc4cc(C(=O)N5C[C@H](N)[C@@H]6CC[C@H]5C6)cc(F)c4n3C)cc3ccc1nc32` [Example 469, (2~{R})-17-[5-[(1~{S),4~{R},5~{R})-4-amino-2-azabicyclo[3.2.1]octane-2-carbonyl]-7-fluoro-1-methyl-benzimidazol-2-yl]-8-chloro-2-methyl-3,9,16,22-tetrazatetracyclo[14.5.2.0^{5,10).0^ {19,23)]tricosa-1(21),5(10),6,8,17,19,22-heptaen-4-one], the IC50 was determined as 21 nM.
`CO[C@H]1C[C@@H]1n1c(-c2cc3ccc4nc3n2CC(F)(F)CCC[C@@H]2C[C@H]2C(=O)N[C@@H]4C)nc2cc(C(=O)N3C[C@H](N)[C@@H]4CC[C@H]3C4)cc(F)c21` [Example 470, (2~{R},5~{R},7~{R})-14-[5-[(1~{S},4~{R},5~{R})-4-amino-2-azabicyclo[3.2.1]octane-2-carbonyl]-7-fluoro-1-[(1~{S},2~{S})-2-methoxycyclopropyl]benzimidazol-2-yl]-11,11-difluoro-2-methyl-3,13,19-triazatetracyclo[11.5.2.0^{5,7}.0^{16,20}] icosa-1(18),14,16,19-tetraen-4-one]: the IC50 came out at 43 nM.
For `C[C@H]1NC(=O)[C@@H]2C[C@H]2CCCC(F)(F)Cn2c(-c3nc4cc(C(=O)N5C[C@H](N)[C@@H]6CC[C@H]5C6)cc(Cl)c4n3C3CC3)cc3ccc1nc32` [Example 471, (2~{R},5~{R},7~{R})-14-[5-[(1~{S),4~{R},5~{R})-4-amino-2-azabicyclo[3.2.1]octane-2-carbonyl]-7-chloro-1-cyclopropyl-benzimidazol-2-yl]-11,11-difluoro-2-methyl-3,13,19-triazatetracyclo[11.5.2.0^{5,7}.0^{16,20}] icosa-1(18),14,16,19-tetraen-4-one], the IC50 worked out at 44 nM.
Consider `C[C@H]1NC(=O)c2ccc(Cl)nc2CCCCCn2c(-c3nc4cc(C(=O)N5C[C@H](N)[C@@H]6CC[C@H]5C6)cc(F)c4n3C3CC3)cc3ccc1nc32` [Example 472, (2˜{R})-17-[5-[(1˜{S},4˜{R},5˜{R})-4-amino-2-azabicyclo[3.2.1]octane-2-carbonyl]-1-cyclopropyl-7-fluoro-benzimidazol-2-yl]-8-chloro-2-methyl-3,9,16,22-tetrazatetracyclo[14.5.2.0^{5,10}.0^{19,23}]tricosa-1(21),5(10),6,8,17,19,22-heptaen-4-one], for which the IC50 is 42 nM.
For the compound `C[C@H]1NC(=O)c2ccc(Cl)nc2CCCCCn2c(-c3nc4cc(C(=O)N5C[C@H](N)[C@@H]6CC[C@H]5C6)cc(F)c4n3[C@@H]3C[C@H]3F)cc3ccc1nc32` [Example 473, (2~{R})-17-[5-[(1~{S},4~{R},5~{R})-4-amino-2-azabicyclo[3.2.1]octane-2-carbonyl]-7-fluoro-1-[(1~{R},2~{R})-2-fluorocyclopropyl]benzimidazol-2-yl]-8-chloro-2-methyl-3,9,16,22-tetrazatetracyclo[14.5.2.0^{5,10}.0^{19,23}] tricosa-1(22),5(10),6,8,17,19(23),20-heptaen-4-one], the IC50 is 44 nM.
For the compound `C[C@H]1NC(=O)c2ccc(C(F)(F)F)nc2CCCCCn2c(-c3nc4cc(C(=O)N5C[C@H](N)[C@@H]6CC[C@H]5C6)cc(F)c4n3C3CC3)cc3ccc1nc32` [Example 474, (2~{R})-17-[5-[(1~{S},4~{R},5~{R})-4-amino-2-azabicyclo[3.2.1]octane-2-carbonyl]-1-cyclopropyl-7-fluoro-benzimidazol-2-yl]-2-methyl-8-(trifluoromethyl)-3,9,16,22-tetrazatetracyclo[14.5.2.0^{5,10}.0^{19,23}] tricosa-1(22),5(10),6,8,17,19(23),20-heptaen-4-one], the IC50 came out at 49 nM.
Turning to `COc1cc(C(=O)N2C[C@H](N)[C@@H]3CC[C@H]2C3)cc2nc(-c3cc4ccc5nc4n3CC(F)(F)CCCCC3(CC3)C(=O)N[C@@H]5C)n(C)c12` [Example 475, (11~{R})-17-[5-[(1~{S},4~{R},5~{R})-4-amino-2-azabicyclo[3.2.1]octane-2-carbonyl]-7-methoxy-1-methyl-benzimidazol-2-yl]-3,3-difluoro-11-methyl-spiro[1,10,19-triazatricyclo[10.5.2.0^{15,18}]nonadeca-12(19),13,15(18),16-tetraene-8,1′-cyclopropane]-9-one], the IC50 is 62 nM.
With `C[C@H]1NC(=O)c2cc3ccccc3nc2CCCCCn2c(-c3nc4cc(C(=O)N5C[C@H](N)[C@@H]6CC[C@H]5C6)cc(F)c4n3C3CC3)cc3ccc1nc32` [Example 476, (2~{R})-21-[5-[(1~{S),4~{R},5~{R})-4-amino-2-azabicyclo[3.2.1]octane-2-carbonyl]-1-cyclopropyl-7-fluoro-benzimidazol-2-yl]-2-methyl-3,13,20,26-tetrazapentacyclo[18.5.2.0^{5,14).0^ {7,12}.0^{23,27}]heptacosa-1(26),5(14),6,8,10,12,21,23(27),24-nonaen-4-one], the IC50 worked out at 38 nM.
Turning to `C[C@H]1NC(=O)[C@@H]2C[C@H]2CCCC(F)(F)Cn2c(-c3nc4cc(C(=O)N5C[C@H](N)[C@@H]6CC[C@H]5C6)cc(F)c4n3[C@@H]3C[C@H]3F)cc3ccc1nc32` [Example 477, (2~{R},5~{R},7~{R})-14-[5-[(1~{S},4~{R},5~{R})-4-amino-2-azabicyclo[3.2.1]octane-2-carbonyl]-7-fluoro-1-[(1~{R},2~{R})-2-fluorocyclopropyl]benzimidazol-2-yl]-11,11-difluoro-2-methyl-3,13,19-triazatetracyclo[11.5.2.0^{5,7}.0^{16,20}] icosa-1(19),14,16(20),17-tetraen-4-one], the IC50 came to 35 nM.
